This is an account of results in ChEMBL document CHEMBL1153659, “Target directed enediyne prodrugs: hER and AhR degradation by a synthetic oxo-enediyne” (1996).

This experiment has as its system T47D. Put plainly: Compound was tested for growth inhibition against T-47D-Y cells at 10e-4 M. The experiment is classed as functional. Conditions: Homo sapiens.

SMILES strings stand for the structures.

The compound `C1#CCO[C@H]2CCCC[C@@H]2C#C/C=C\1` came in with an inhibition at 100 µM of 83%.
